Patent US5736578A, “Ethylamido fluorenes and improved method of making same” (Bristol-Myers Squibb Company, priority 1996, dated 1998)

What was measured:
human ML1A = target: T1, human ML1A (Homo sapiens, UniProt P48039); assay: Melatonergic binding (2-[125I]-iodomelatonin displacement, NIH 3T3 cell membranes); details: human ML1A in NIH 3T3 membranes; 100 pM 2-[125I]-iodomelatonin; 37° C., 1 hour; read-out: Binding Affinity (IC50)
T1 construct: expressed in transfected cells; pcDNA3; membrane homogenates
T1 sequence (P48039 whole entry): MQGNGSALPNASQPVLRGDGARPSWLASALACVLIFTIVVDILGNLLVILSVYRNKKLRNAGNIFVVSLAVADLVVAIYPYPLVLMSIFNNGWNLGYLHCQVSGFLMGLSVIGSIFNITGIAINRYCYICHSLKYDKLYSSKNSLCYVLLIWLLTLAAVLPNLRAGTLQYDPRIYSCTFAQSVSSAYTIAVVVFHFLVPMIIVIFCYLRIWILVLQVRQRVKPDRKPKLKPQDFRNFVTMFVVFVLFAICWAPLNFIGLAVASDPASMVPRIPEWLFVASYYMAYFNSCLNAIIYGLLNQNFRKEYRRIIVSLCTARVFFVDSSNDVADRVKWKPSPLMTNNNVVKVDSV
Procedure: Measurement of Melatonergic Binding
(a) 50 mM Tris buffer containing 12.5 mM MgCl2 and 2 mM EDTA (pH 7.4 at 37° C.).
(b) Wash buffer: 20 mM Tris base containing 2 mM MgCl2 (pH 7.4 at room temperature).
(d) 2-[^125 I]-iodomelatonin (100 pM final concn.). Source: NEN
2.Membrane preparation. The receptor cDNA (human ML1A) was subcloned into pcDNA3 and introduced into NIH 3T3 cells using Lipofectamine. Transformed NIH 3T3 cells resistant to geneticin were isolated and single colonies expressing high levels of 2-[^125 I]-iodomelatonin binding were isolated and characterized. Cell pellets were frozen at -80° C. for further use. For preparing membrane homogenates, pellets are thawed on ice, and resuspended in TME buffer, Tris base, MgCl2, EDTA (pH 7.4 at 37° C.), supplemented with aprotinin, leupeptin, and phenylmethlysulfonylfluoride. The cells were then homogenized using a dounce homogenizer, and centrifuged. The resulting pellet was resuspended with a dounce homogenizer in TME and frozen. On the day of assay, the small aliquot was thawed on ice and resuspended in TME buffer.
3. Incubation: 37° C. for 1 hour. Reaction is terminated by filtration.
The procedure was based on that disclosed in: Reppert, S. M., Weaver, D. R., and Ebisawa, R. (1994), Neuron, 13, 1177-1185 (1994).

[1] = system: Cyclic AMP Accumulation in Intact Cells: Melatonin; assay: Functional activity: cyclic AMP accumulation in intact cells (forskolin-stimulated); format: cell-based; details: 10 min, read-out: I.A. (Intrinsic Activity) = Emax (experimental compound)/Emax (melatonin)
Procedure: Measurement of Functional Activity
Cyclic AMP Accumulation in Intact Cells: Melatonin
The media was removed from cell flask and washed with Hank's salt solution or PBS, as appropriate. The cells were detached from flask. Enough media was added so that the concentration of cells is 4×10^5 /ml when counted with a hemocytometer. Dialyzed or heat inactivated fetal bovine serum (FBS) was used in the media when plating the cells. 1 ml of cell suspension was put into each well, then 2 mls of media. Cells were incubated overnight.
1. Stock solution: plain media (no serum or additives)+20 mM HEPES.
2. IBMX solution: media/HEPES+1 mM IBMX.
3. Assay solution: 90% stock solution+10% IBMX solution.
Each well gets 3 mls of assay solution for preincubation and 3 mls for the assay. Each test condition is done in triplicate.
a) Basal assay solution+DMSO
b) Forskolin stimulation: 10 μM final concentration.
All tests were done in triplicate at 37° C. Plates with cells were kept in a shallow 37° C. water bath throughout the reaction. Media was taken from the wells and 3 ml of preincubation media was added. After 10 min, that solution was removed and 3 mls of drug solution was added. After 10 min, the media was removed and reaction stopped with HCl. Samples set for at least an hour at room temperature. 1 ml from each dish was taken and put into a microfuge tube and spun to remove floating cells. After dilution to 1:100 for RIA, a radioimmuno-assay was done.

circadian rhythms = details: rats; in words; cited from earlier work
[2] = in words; cited from earlier work
[3] = system: jet-lag related sleep disturbances; details: humans; in words; cited from earlier work

Row | Structure (SMILES) | IC50 (human ML1A) [nM] | further results
1 | CCCC(=O)NCCC1c2ccccc2-c2ccc(OC)cc21 (centres unmarked) [Example 6, N-[2-(2-methoxyfluoren-9-yl)ethyl]butanamide] | < 100 | –
2 | COc1ccc2c(c1)C(CCNC(=O)C1CC1)c1cc(OC)ccc1-2 [Example 7, N-[2-(2,7-dimethoxyfluoren-9-yl)ethyl]cyclopropane carboxamide] | – | Emax [1]: 102%
3 | CCCC(=O)NCCC1c2cc(OC)ccc2-c2ccc(OC)cc21 [Example 10, N-[2-(2,7-dimethoxyfluoren-9-yl)ethyl]butanamide] | – | Emax [1]: 115%
4 | COc1ccc2c(c1)C(CCCNC(C)=O)c1cc(OC)ccc1-2 [Example 20, N-[3-(2,7-dimethoxyfluoren-9-yl)prop-1-yl]acetamide] | < 100 | –
5 | COc1ccc2[nH]cc(CCNC(C)=O)c2c1 [melatonin, N-acetyl-5-methoxytryptamine] | – | effect of exogenous administration on circadian rhythms (circadian rhythms): synchronize circadian rhythms in rats; oral bioavailability [2]: often low and variable; treatment of jet-lag related sleep disturbances [3]: used to treat jet-lag related sleep disturbances

Further lines, with some results ahead:

Row | IC50 (human ML1A) [nM] | Structure (SMILES) | further results
6 | < 10 | CCC(=O)NCCC1c2cc(OC)ccc2-c2ccc(OC)cc21 [Example 5, N-[2-(2,7-dimethoxyfluoren-9-yl)ethyl]propanamide] | Emax [1]: 114%
7 | < 100 | COCC(=O)NCCC1c2cc(OC)ccc2-c2ccc(OC)cc21 [Example 9, N-[2-(2,7-dimethoxyfluoren-9-yl)ethyl]methoxyacetamide] | –
8 | < 100 | C=CC(=O)NCCC1c2ccccc2-c2ccc(OC)cc21 (centres unmarked) [Example 11, N-[2-(2-methoxyfluoren-9-yl)ethyl]-2-propenamide] | –
9 | < 10 | COc1ccc2c(c1)C(CCNC(=O)C1CCC1)c1cc(OC)ccc1-2 [Example 13, N-[2-(2,7-dimethoxyfluoren-9-yl)ethyl]cyclobutane carboxamide] | –
10 | < 500 | COc1ccc2c(c1)C(CCNC(=O)C(C)(C)C)c1cc(OC)ccc1-2 [Example 14, N-[2-(2,7-dimethoxyfluoren-9-yl)ethyl]-2,2-dimethyl propanamide] | –
11 | < 100 | CCOc1ccc2c(c1)C(CCNC(=O)CC)c1cc(OC)ccc1-2 (centres unmarked) [Example 29, N-[2-(2-ethoxy-7-methoxyfluoren-9-yl)-ethyl]propanamide] | –
